Results published in patent publication US20100152239A1, “Method to Improve Survival in Sepsis” (priority 2008, published 2010).

Assays:
serum TNF and HMGB1 = settings: cited from earlier work
macrophages = settings: via alpha7nAChR; cited from earlier work
[1] = system: RAW264.7 macrophage cells; settings: via alpha7nAchR; cited from earlier work
[2] = mice; cited from earlier work
mRNA TNF = assay: TNF transcription in heart and spleen by real-time PCR; type: in vivo, rat; settings: 2 hrs after hemorrhage; as compared with Hextend; n=4/group
Description: We analyzed mRNA TNF levels in the heart and the spleen by real-time PCR (FIG. 5, GTS inhibits TNF transcription in the spleen during resuscitation. Organs from control or hemorrhagic animals without or with resuscitation were analyzed at 2 hrs after hemorrhage. TNF transcription in the (A) heart and (B) spleen was analyzed by real-time PCR. * represents P<0.05 versus HXT (n=4/group; one-way ANOVA with Bonferroni's corrections)). Hemorrhage increased mRNA TNF levels in both the heart and the spleen as analyzed by real-time PCR. […] In order to determine whether the inhibition of splenic TNF is sufficient to account for the anti-inflammatory potential of GTS, we analyzed the pharmacological implications of the spleen during resuscitation.

p65RelA NF-κB = p65RelA NF-κB binding to DNA in organs (TransAM DNA-Binding ELISA); type: in vivo, rat; settings: nuclear extracts at 2 hrs after hemorrhage
Description: (§1) Homogenates were normalized by protein concentration and the activation of IκBα was analyzed by Western blot by using anti-IκBα polyclonal antibody ab7217 and anti-phosphorylated-IκBα(phospho S32+S36) monoclonal antibody [clone39A1431] ab12135 (Abcam; Cambridge, Mass., USA). Transcriptional activity of splenic p65RelA was analyzed by TransAM DNABinding ELISA (Active Motif; Cambridge, Mass., USA) following manufacturer's instructions. […] Protein levels were measured using the Bradford method (BIO-RAD) and PARP activity was normalized to protein content.

HMGB1 = assay: Serum HMGB1 by Western blot during resuscitation; type: in vivo, rat; settings: 2 hrs after hemorrhage; n=4/group
Description: (§2) Activation Blood was collected at 2 hrs after the hemorrhagic shock and analyzed using the i-Stat blood analyzer (Abbot Laboratories, IL, USA). Lung function was assessed by analyzing blood gases including total and partial carbon dioxide (TCO2, PCO2), bicarbonate (HCO3), pH and the base excess of extracellular fluid (BEecf). The organ function tests include […] sodium, potassium, chloride, the anion gap (AnGap), total plasma protein (TP), and blood urea nitrogen (BUN). Blood chemistry also included glucose, hematocrit and hemoglobin. The systemic inflammatory status was assessed by analyzing critical pro-inflammatory cytokines and cardiodepressant factors such as TNF and HMGB1. The major organs were collected and immediately sliced and washed with PBS at 4° C. TNF concentrations in serum and major organs were determined by ELISA (R&D Systems, Inc., Minneapolis, Minn., USA). HMGB1 was analyzed by Western blot as previously described.

TNF [3] = assay: TNF protein in splenectomized hemorrhagic animals after resuscitation; type: in vivo, rat; settings: n=4/group
Description: as §2

[4] = system: poly(ADP-ribose) polymerase (PARP); assay: PARP activity in organ homogenates; type: in vivo, rat; settings: liver homogenates; n=4/group
Description: as §1

RelB NF-κB = RelB NF-κB binding to DNA in spleen (TransAM DNA-Binding ELISA); type: in vivo, rat; settings: nuclear extracts at 2 hrs after hemorrhage
[5] = rats; cited from earlier work
hemorrhagic rats = assay: Survival after severe hemorrhage and resuscitation; type: in vivo, rat; settings: for animals with hemorrhagic shock protected: n=7/group
Description: Adult male Sprague-Dawley (350-450 g) rats were purchased from Harlen Sprague-Dawley (Indianapolis, Ind., USA) and allowed to acclimate for 7 days, housed at 25° C. on a 12-hr light/dark cycle. Animals were randomly grouped and assigned to a specific experiment. Investigators were blinded to the experimental treatment.
Animals were anaesthetized by inhalation of isoflurane (5% induction, 2% maintenance; Minrad, Buffalo, N.Y., USA) and subjected to surgical catheter placement into the femoral artery and vein under sterile conditions. To avoid blood clot and maintain catheter patency, the catheters were flushed with 1% heparin solution immediately before placement. Heparin was not used in vivo during the experiment or observation period in agreement with previous studies. After the catheter implantation, the blood pressure and the heart rate were recorded for 15 min. to establish a physiological baseline prior the hemorrhage procedure. Then, the animals were subjected to hemorrhage over 15 min. to reach a mean arterial blood pressure (MAP) of 35-40 mmHg and subsequent maintenance of this blood pressure by continued blood withdrawal for another 15 min. After the shock phase, resuscitated animals received specific resuscitation treatment over 40 min. with a total volume of 15 ml/kg (equivalent to 1000 ml of Hextend in a 70 kg person). The femoral artery was catheterized with a catheter R-FAC (Braintree Scientific, Inc., Braintree, Mass., USA) previously flushed with 1% heparin in 0.9% saline to allow spontaneous bleeding due to arterial blood pressure. Shed blood was considered lost and it was not reinfused. After resuscitation treatment, the animals were kept anesthetized for 2 hrs to record heart rate, blood pressure and blood chemistry. The control animals were also anesthetized with isoflurane for blood collection. Then, the anesthesia was stopped and the animals were allowed to recover from anesthesia and housed individually in regular cages. Splenectomy was performed as we described previously. Briefly, the spleen was identified following a midline laparotomy incision, and removed after appropriate blood vessel ligation. Sham animals underwent laparotomy without splenectomy.
All data in the figures and text are expressed as mean±standard deviation (SD). Statistical analyzes were performed using the one-way ANOVA with multiple pairwise comparisons with the Bonferroni's adjustment for multiple hypothesis testing. The Student's t-test was used to compare mean values between two experimental groups. Statistical analyzes of survival were determined using the logrank test. P-values<0.05 were considered statistically significant.
Adult male Sprague-Dawley hemorrhagic rats received no resuscitation (NR) or were resuscitated with 15 ml/kg (i.v.) Hextend (HEXT) or Hextend supplemented with GTS (GTS). (A) Arterial blood pressure was recorded during hemorrhage and the resuscitation treatment. (B) All animals without resuscitation treatment (NR; n=10) died within the first 5 hrs after hemorrhage with an average time of death of 161±26 min. Resuscitation with Hextend allowed the animals to restore normal blood pressure and tissue perfusion, and yet 90% of the animals died (n=9). […] P<0.05 survival logrank test versus NR (*) or HXT(#).

[6] = Arterial blood pressure during hemorrhage and resuscitation; type: in vivo, rat; settings: 15 ml/kg resuscitation fluid i.v.
Description: Animals were anaesthetized by inhalation of isoflurane (5% induction, 2% maintenance; Minrad, Buffalo, N.Y., USA) and subjected to surgical catheter placement into the femoral artery and vein under sterile conditions. To avoid blood clot and maintain catheter patency, the catheters were flushed with 1% heparin solution immediately before placement. […] After the catheter implantation, the blood pressure and the heart rate were recorded for 15 min. to establish a physiological baseline prior the hemorrhage procedure. Then, the animals were subjected to hemorrhage over 15 min. to reach a mean arterial blood pressure (MAP) of 35-40 mmHg and subsequent maintenance of this blood pressure by continued blood withdrawal for another 15 min. After the shock phase, resuscitated animals received specific resuscitation treatment over 40 min. with a total volume of 15 ml/kg (equivalent to 1000 ml of Hextend in a 70 kg person). The femoral artery was catheterized with a catheter R-FAC (Braintree Scientific, Inc., Braintree, Mass., USA) previously flushed with 1% heparin in 0.9% saline to allow spontaneous bleeding due to arterial blood pressure. Shed blood was considered lost and it was not reinfused. After resuscitation treatment, the animals were kept anesthetized for 2 hrs to record heart rate, blood pressure and blood chemistry. […]

TNF [7] = assay: TNF protein in serum and organs by ELISA during resuscitation; type: in vivo, rat; settings: non-splenectomized animals; 2 hrs; n=4/group
Description: as §2

[8] = Blood chemistry during resuscitation (i-Stat); type: in vivo, rat; settings: blood at 2 hrs after hemorrhage; n=4/group
Description: as §2

CN1CCCC1c1cccnc1 (stereo not drawn) [nicotine]
survival (serum TNF and HMGB1; experimental models of systemic inflammation): improves survival | serum TNF and HMGB1 levels (serum TNF and HMGB1; in vivo treatment, experimental models of systemic inflammation): inhibits serum TNF and HMGB1 levels | systemic TNF levels in sham versus splenectomized animals (serum TNF and HMGB1; previous studies): attenuated systemic TNF levels in sham but not in splenectomized animals | production of TNF and HMGB1 in macrophages (macrophages): inhibits TNF and HMGB1 production | endotoxin-induced p65NF-κB activation [1]: inhibits endotoxininduced p65NF-κB activation | effect on locomotor activity [2]: biphasic effect

COc1ccc(/C=C2\CCCN=C2c2cccnc2)c(OC)c1 [GTS, 3-[(2,4-dimethoxy)benzylidene]-anabaseine]
mRNA TNF levels in heart and spleen (mRNA TNF): decreased mRNA TNF levels in the spleen but not in the heart | p65RelA NF-κB activation in organs (heart, liver, spleen) (p65RelA NF-κB): inhibited p65RelA NF-κB in most of the organs but not in the heart | serum HMGB1 levels (HMGB1): no serum HMGB1 was found | TNF levels in serum, lung and heart of splenectomized animals (TNF [3]): significantly inhibited serum TNF levels as well as TNF levels in the lung and the heart | systemic (serum) TNF levels in splenectomized animals (TNF [3]): significantly inhibited systemic TNF levels | hepatic PARP activity [4]: inhibited PARP activation | RelB NF-κB activation in spleen (RelB NF-κB): not affected | effect on dopamine turnover [5]: no effect | animals with hemorrhagic shock protected (hemorrhagic rats; 0.02 mg/kg GTS in Hextend): 17% | protection as compared with Hextend solution alone (logrank) (hemorrhagic rats; 0.2 mg/kg GTS): statistically significant protection | animals with hemorrhagic shock protected (hemorrhagic rats; 0.2 mg/kg GTS in Hextend): 67% | protection as compared with Hextend solution alone (logrank) (hemorrhagic rats; 2 mg/kg GTS): statistically significant protection | survival from lethal hemorrhage (hemorrhagic rats; Hextend supplemented with 350 uM GTS, 15 ml/kg i.v., n=7, followed up to 7 days): rescued all the animals from lethal hemorrhage | blood pressure after resuscitation [6]: re-established blood pressure | effect on locomotor activity [2]: no effect | TNF levels in organs (lung, liver, heart, spleen) (TNF [7]): blunted TNF levels in all of the organs | serum (circulating) TNF levels (TNF [7]): circulating TNF levels similar to those in control mice | AnGap, bicarbonate and chloride [8]: re-established normal values of AnGap and bicarbonate but not hypochloremia | hyperglycemic response (glucose) [8]: significantly prevented | metabolic acidosis (pH) [8]: prevented metabolic acidosis | uremia (blood urea nitrogen) [8]: did not prevent uremia
